Reference: US20240415852A1, “ORAL CODELIVERY OF NAVITOCLAX AND Bcl2 siRNA TREATING GASTIC CANCER” (Board of Regents, The University of Texas System, priority 2023, published 2024)

What was measured:
platelet = details: reported in literature; cited from earlier work
[1] = tested on: adenocarcinoma gastric cell line (AGS); experiment: Cytotoxicity / cell viability, MTT assay; format: cell-based; details: human, 24 h
Procedure: The cytotoxicity of the nanoparticle formulation was studied using adenocarcinoma gastric cell line (AGS). Cells were grown in F-12K media supplemented with 20% fetal bovine serum at 5% CO2 humidified atmosphere. Cells were harvested using trypsin and 1×10^4 cells with 100 μL of serum free media per well was plated in 96-well plate and incubated for 24 and 48 h. At end of time interval, media was removed and known concentrations of samples 1×PBS, Navi, GADA/Navi, GADA/Navi/Bcl2 siRNA, GADA/Bcl2 siRNA, Navi/Bcl2 siRNA, (Navi 10, 20, 30, 40, and 50 μM and Bcl2 siRNA 20, 40, 60, 80, and 100 nM) and GADA were added to the cells. The plate was then incubated for 24 h and 48 h. Cell viability was measured using MTT cell proliferation assay kit according to manufacturer's instruction. The absorbance of MTT was measured by using a SYNERGY H1 microplate reader (BioTek) at a wavelength of 570 nm and subtracted the background absorbance recorded at 630 nm.
The mitochondrial enzymes are responsible for reducing the tetrazolium salt (MTT) into purple formazan crystals which is indicator of cell viability/cytotoxicity. The therapeutic effect of formulations was carried out by quantifying the cell viability using MTT assay. […]

CC1(C)CCC(c2ccc(Cl)cc2)=C(CN2CCN(c3ccc(C(=O)NS(=O)(=O)c4ccc(N[C@H](CCN5CCOCC5)CSc5ccccc5)c(S(=O)(=O)C(F)(F)F)c4)cc3)CC2)C1 [Navitoclax]
Platelet apoptosis, thrombocytopenia (platelet): induced platelet apoptosis, resulting in severe thrombocytopenia | Cell viability [1]: 65.2±5.32%
